What all share (assay): Tetracycline-induced expression of TIM 17 in IMR32 cells, PKC isoform level
Holding throughout (format): cell-based

The target in test [1] is PKC delta (Homo sapiens, UniProt Q05655). Further details: endogenous in cells. Particulars: fluorescence imaging; confirmed by Western blot. The method, then:
(§1) The specificity and efficacy of compound TIM 17 (see Table 28) was tested intracellularly on 3 PKC isoforms (α, δ and ε), which are the main isoforms expressed in the IMR32 neuroblastoma cell lines and neuroblastoma biopsies.
(§2) The synthetic TIM 17 gene was subcloned into the pREx-DEST31(7559) expression vector and transfected into IMR32 neuroblastoma cells using standard techniques. Transcription of the TIM 17 gene is under the control of a tetracycline promoter that allows gene expression to be switched on and off. Expression of the TIM 17 gene was elicited by treatment with 150 ng/ml of tetracycline for 48 h.
(§3) The expression level of PKC-α, δ and ε was also assessed by fluorescence imaging using anti-PKC antibodies from SantaCruz and secondary Alexa 488 conjugate from Invitrogen. Microscopic images were obtained from a Coulter microscope equipped with epifluorescence and the images analyzed with ImagePro+ software with the assistance of DAGE-MTI camera. The same gating was maintained constant for all images. […] The above results were also confirmed by Western blot.

The target in test [2] is T1, PKC epsilon (Homo sapiens, UniProt Q02156).
T1 sequence (Q02156 1-737): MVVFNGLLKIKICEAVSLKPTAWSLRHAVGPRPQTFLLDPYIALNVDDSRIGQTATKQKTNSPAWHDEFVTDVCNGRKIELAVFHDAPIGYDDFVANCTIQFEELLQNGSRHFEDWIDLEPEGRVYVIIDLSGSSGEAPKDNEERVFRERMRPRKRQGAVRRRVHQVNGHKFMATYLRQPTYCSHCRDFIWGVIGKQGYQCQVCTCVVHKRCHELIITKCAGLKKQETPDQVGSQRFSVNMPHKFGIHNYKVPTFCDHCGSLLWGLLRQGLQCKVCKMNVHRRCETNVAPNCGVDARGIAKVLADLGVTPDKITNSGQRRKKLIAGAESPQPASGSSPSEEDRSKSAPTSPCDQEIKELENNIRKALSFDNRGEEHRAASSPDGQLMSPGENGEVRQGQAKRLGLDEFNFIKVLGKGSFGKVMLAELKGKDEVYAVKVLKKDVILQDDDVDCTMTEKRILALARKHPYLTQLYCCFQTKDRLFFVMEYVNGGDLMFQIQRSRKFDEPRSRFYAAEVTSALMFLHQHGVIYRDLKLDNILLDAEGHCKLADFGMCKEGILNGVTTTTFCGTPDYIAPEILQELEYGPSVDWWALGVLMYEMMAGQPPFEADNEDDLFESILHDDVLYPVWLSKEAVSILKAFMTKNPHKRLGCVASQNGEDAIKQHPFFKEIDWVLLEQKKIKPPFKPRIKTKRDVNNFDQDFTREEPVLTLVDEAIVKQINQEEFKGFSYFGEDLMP
Also on record: endogenous in cells. Particulars: fluorescence imaging; confirmed by Western blot. How it is done: as §1, §2, §3

Test [3] concerns the target PKC-α (Homo sapiens, UniProt P17252). Further details: endogenous PKC-α in (A) untreated human neuroblastoma (IMR-32) cells; endogenous in cells; host or cells: IMR-32 human neuroblastoma cells. Particulars: TIM 17 transfected cells + 150 ng/ml tetracycline 48 h; flow cytometry. The method, then: as §1, §2
The data were acquired from 20,000 to 50,000 individual cells. The graph scales report the number of events measured at the peak of fluorescence while the percentage of cells positive to the specific anti-PKCalpha antibody is shown on the graphs together with the relative intensity (see number provided below the percentage). The relative intensity correlates to the mean intracellular level of PKCalpha in the cell population.
The expression level of PKC-α, δ and ε was also assessed by fluorescence imaging using anti-PKC antibodies from SantaCruz and secondary Alexa 488 conjugate from Invitrogen. Microscopic images were obtained from a Coulter microscope equipped with epifluorescence and the images analyzed with ImagePro+ software with the assistance of DAGE-MTI camera. […]

This note sets out measurements from patent publication US20110039770A1, “INHIBITORS OF PROTEIN KINASE C ISOFORMS AND USES THEREOF” (PHARMAGAP INC., priority 2005, published 2011).

Sequence of PKC delta (Q05655 whole entry, canonical isoform): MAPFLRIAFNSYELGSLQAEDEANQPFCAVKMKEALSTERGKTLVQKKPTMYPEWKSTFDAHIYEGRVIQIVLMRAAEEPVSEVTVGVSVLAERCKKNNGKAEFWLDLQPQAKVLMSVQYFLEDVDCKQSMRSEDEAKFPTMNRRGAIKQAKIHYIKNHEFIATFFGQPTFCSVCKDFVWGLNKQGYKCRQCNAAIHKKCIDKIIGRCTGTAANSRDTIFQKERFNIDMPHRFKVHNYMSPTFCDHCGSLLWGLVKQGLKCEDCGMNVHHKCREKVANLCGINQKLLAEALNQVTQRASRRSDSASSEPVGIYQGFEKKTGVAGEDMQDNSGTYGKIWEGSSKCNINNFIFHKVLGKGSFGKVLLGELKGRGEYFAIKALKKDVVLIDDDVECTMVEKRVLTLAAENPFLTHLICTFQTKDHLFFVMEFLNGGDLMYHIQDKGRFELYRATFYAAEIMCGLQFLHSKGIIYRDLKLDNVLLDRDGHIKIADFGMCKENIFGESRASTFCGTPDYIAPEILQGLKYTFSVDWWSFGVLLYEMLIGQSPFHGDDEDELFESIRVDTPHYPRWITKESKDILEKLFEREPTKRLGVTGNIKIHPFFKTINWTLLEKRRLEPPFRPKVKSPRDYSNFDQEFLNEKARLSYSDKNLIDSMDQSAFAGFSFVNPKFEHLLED

Turning to FRRKFRL—(G)7—KDAQNLIGISI [TIM 17], the “intracellular level of PKC delta” value in test [1] is listed as “did not, however, alter the intracellular level”. In addition, the “intracellular level of PKC epsilon” value in test [2] is listed as “did not, however, alter the intracellular level”. In addition, in test [3], the “percentage of cells expressing similar levels of PKCalpha as controls” value is 30% and the “percentage of population with dramatic decrease in PKC alpha cellular content” value was determined as 69.8%.
